# Reference: patent US5068064A, “N-substituted lauramides, their preparation and compositions in which they are present” (Sanofi, priority 1989, dated 1991)
# Counter-ions that a name gives are not always drawn.
# Assays:
# [1] = test system: Enterococcus faecium CIP 5855; assay: Minimum bactericidal concentration, first method (30 min contact), E. faecium; type: cell-based; conditions: CIP5855, 0.5 h, contact time 30 minutes
# Description: (§1) In the two methods, a bacterial inoculum is brought into contact with different dilutions of the product for a determined period of time.
# (§2) When the contact period has ended, an aliquot of the mixture of bacterial suspension and product is taken and brought into contact with an agent for neutralizing the bacterial activity of the mixture, either in a solid medium or in a liquid medium. The bactericidal activity of the product, expressed either as a concentration or as a percentage of active principle, corresponds to an absence of bacterial growth.
# (§3) The first method makes it possible to define a minimum bactericidal concentration (MBC) or minimum fungicidal concentration (MFC), expressed in μg/ml. The contact time between product and bacterial suspension is 30 minutes. The neutralizer is included in agar.
# (§4) The CIP bacterial strains chosen for the study, which are available from the Institut Pasteur, are:
# (§5) The strains are maintained on Tryptic Soy Agar® (TSA) marketed by Difco.
# (§6) After 24 hours of culture at 37° C., the microbial growth is harvested with the aid of glass beads and 10 ml of diluent containing 1 g of tryptone and 8.5 g of sodium chloride in 1000 ml of distilled water. The suspension formed is shaken and the percentage transmission of light at 620 nm is measured in a spectrophotometer:
# (§7) The bacterial inoculum corresponds to a 1:20 dilution of this bacterial suspension.
# (§8) Plates containing cupules receive different dilutions of the test product. These dilutions of the test product are brought into contact with the different bacterial suspensions using a multiple site inoculator. After a contact time of 30 minutes, aliquots are transferred with this inoculator to the surface of an agar medium (TSA) placed in Petri dishes containing an activity neutralizer, namely 20 g of lubrol W, 2.5 g of Tween 80, 2.5 g of sodium thiosulfate and 1% of egg yolk in 1000 ml of TSA (Difco). A control for the efficacy of the neutralizer is prepared for each test product by depositing an aliquot of the dilution of the test product on the surface of the culture medium. After drying, the corresponding inoculum is deposited in the same place. An inoculum control is prepared on agar medium with and without neutralizer. The results are read off after 48 hours of incubation at 37° C.
# (§9) They indicate the minimum bactericidal concentrations (MBC) for strains 1, 2, 3 and 4 and the minimum fungicidal concentrations (MFC) for strain 5.
# [2] = test system: Staphylococcus aureus CIP 53154; assay: Percentage of bactericidal active principle, second method (5 min contact), S. aureus; type: cell-based; conditions: destruction of 99.99%
# Description: as §1, §2
# (§10) The second method makes it possible to define a percentage of bactericidal or fungicidal active principle by means of a simplified and automated adaptation of Afnor standards NF T 72-150 and NF T 72-170. In this method, the bactericidal activity of the product is determined with and without interfering substances. It is based on assessing the destruction of 99.99% of the initial bacteria by the product in 5 minutes. The interfering substances are of the protein type and are chosen for the actual conditions of application of this type of product. The contact time between product and bacterial suspension is 5 minutes, the neutralization step is 10 minutes and subculture is effected in a liquid medium.
# (§11) The chosen bacterial strains are:
# (§12) 1. Staphylococcus aureus
# as §5
# (§13) The strains are harvested in a manner identical to the first method; these suspensions contain between 1.10^8 and 3.10^8 cells per milliliter. Appropriate dilutions make it possible to have a suspension containing 2 to 6.10^3 cells per milliliter.
# (§14) The experiment is performed in microtiter plates; it comprises two steps. The first step, called the preliminary test, checks that the product is indeed neutralized. In the test proper, the different dilutions of the product are brought into contact with 2 to 6.10^3 cells per milliliter of the bacterial suspension in the second row of the microtiter plate. After a contact time of 5 minutes, an aliquot is transferred to the third row containing the neutralizer adapted to the product and to the strain. After a contact time of 10 minutes, aliquots are transferred to the last 5 rows containing Tryptic Soy Broth® (TSB) from Difco.
# (§15) The interfering substances tested are a mixture of albumin and yeast extract. In the first row of the microplate, these proteins are brought into contact for 5 minutes with the different dilutions of the product. After this step, the same principle as above is applied: 5 minutes of contact with the germ, 10 minutes of contact with the neutralizer, transfer to TSB.
# [3] = test system: Enterococcus faecium CIP 5855; assay: Percentage of bactericidal active principle, second method (5 min contact), E. faecium; type: cell-based; conditions: destruction of 99.99%
# Description: as §1, §2, §10, §11, §5, §13, §14, §15
# [4] = test system: Escherichia coli CIP 54127; assay: Minimum bactericidal concentration, first method (30 min contact), E. coli; type: cell-based; conditions: CIP54127, 0.5 h, contact time 30 minutes
# Description: as §1, §2, §3, §4
# (§16) 3. Escherichia coli CIP 54127
# as §5, §6, §7, §8, §9
# [5] = test system: Pseudomonas aeruginosa CIP A22; assay: Minimum bactericidal concentration, first method (30 min contact), P. aeruginosa; type: cell-based; conditions: CIPA22, 0.5 h, contact time 30 minutes
# Description: as §1, §2, §3, §4
# 4. Psuedomonas aeruginosa
# as §5, §6, §7, §8, §9
# [6] = test system: Pseudomonas aeruginosa CIP A22; assay: Percentage of bactericidal active principle, second method (5 min contact), P. aeruginosa; type: cell-based; conditions: destruction of 99.99%
# Description: as §1, §2, §10, §11
# 4. Pseudomonas aeruginosa
# as §5, §13, §14, §15
# [7] = test system: Staphylococcus aureus CIP 53154; assay: Minimum bactericidal concentration, first method (30 min contact), S. aureus; type: cell-based; conditions: CIP53154, 0.5 h, contact time 30 minutes
# Description: as §1, §2, §3, §4, §12, §5, §6, §7, §8, §9
# [8] = test system: S. aureus, E. faecium, E. coli, P. aeruginosa, C. albicans; assay: First method, bactericidal and fungicidal activity over all strains (Table II); type: cell-based; conditions: contact time 30 minutes
# Description: as §1, §2, §3
# Plates containing cupules receive different dilutions of the test product. These dilutions of the test product are brought into contact with the different bacterial suspensions using a multiple site inoculator. […] The results are read off after 48 hours of incubation at 37° C.
# The antifungal activity of the products according to the invention was also determined using the method described above. […]
# [9] = test system: Candida albicans CIP 1180; assay: Minimum fungicidal concentration, first method (30 min contact), C. albicans; type: cell-based; conditions: CIP1180, 0.5 h, contact time 30 minutes
# Description: as §1, §2, §3, §8
# The antifungal activity of the products according to the invention was also determined using the method described above. A representative strain of yeast was selected for the study: Candida albicans CIP 1180 (strain 5).
# This is maintained on Sabouraud's Dextrose Agar marketed by Difco. The technique is identical to that described for studying the antibacterial activity. After 48 hours of culture at 37° C., the microbial growth is harvested with the aid of glass beads and 5 ml of diluent containing 1 g of tryptone and 8.5 g of sodium chloride in 1000 ml of distilled water; a further 5 ml of the diluent are then added. This suspension gives a percentage transmission of light at 620 nm of 2 to 3% in a spectrophotometer.
# The inoculum corresponds to a 1:10 dilution of this microbial suspension. A 1:100 dilution of this suspension, observed between slide and cover glass through a No. 40 microscope objective, must show 10 cells per field, which corresponds to 1,000,000 yeasts per ml.
# as §9
# [10] = test system: Candida albicans CIP 1180; assay: Percentage of fungicidal active principle, second method (5 min contact), C. albicans; type: cell-based
# Description: as §1, §2, §10, §14, §15
# The antifungal activity of the products according to the invention was also determined with and without interfering substances using the method described above. The same strain was used as for the first technique, namely Candida albicans CIP 1180. It is harvested in an identical manner to that described in the first method.
# [11] = test system: Escherichia coli CIP 54127; assay: Percentage of bactericidal active principle, second method (5 min contact), E. coli; type: cell-based; conditions: destruction of 99.99%
# Description: as §1, §2, §10, §11, §16, §5, §13, §14, §15
# [12] = test system: Mycobacterium smegmatis CIP 7326; assay: Percentage of bactericidal active principle, second method (5 min contact), M. smegmatis; type: cell-based; conditions: destruction of 99.99%
# Description: as §1, §2, §10, §11
# 5. Mycobacterium smegmatis
# as §5, §13, §14, §15
# [13] = Simple: without interfering substances, * activity limited to the zone indicated
# [14] = with proteins as interfering substances
# [15] = Simple: without interfering substances
Product solubility (Product solubility; in TEG (tetraethylene glycol)),solubility (Product solubility; water),Compound,MBC [1],"Bactericidal activity, results in percentage of active principle, S. aureus [2, 13]","Bactericidal activity, results in percentage of active principle, S. aureus [2, 14]","Bactericidal activity, results in percentage of active principle, E. faecium [3, 15]","Bactericidal activity, results in percentage of active principle, E. faecium [3, 14]",MBC [4],MBC [5],"Bactericidal activity, results in percentage of active principle, P. aeruginosa [6, 15]","Bactericidal activity, results in percentage of active principle, P. aeruginosa [6, 14]",MBC [7],Ranking of MBC and MFC among the products [8],MFC [9],"Fungicidal activity, results in percentage of active principle, C. albicans [10, 15]","Fungicidal activity, results in percentage of active principle, C. albicans [10, 14]","Bactericidal activity, results in percentage of active principle, E. coli [11, 15]","Bactericidal activity, results in percentage of active principle, E. coli [11, 14]","Bactericidal activity, results in percentage of active principle, M. smegmatis [12, 14]","Bactericidal activity, results in percentage of active principle, M. smegmatis [12, 13]"
1%,–,CCCCCCCCCCCC(=O)NCCCN1CCC(Cc2ccccc2)CC1 [SR 45320 A],10 µg/mL,0.005 percentage of active principle,0.05 percentage of active principle,< 0.001 percentage of active principle,0.1 percentage of active principle,10 µg/mL,10 µg/mL,0.005 percentage of active principle,> 0.5 percentage of active principle,10 µg/mL,lowest MBC and MFC,10 µg/mL,0.005 percentage of active principle,0.05 percentage of active principle,0.01 percentage of active principle,0.05 percentage of active principle,0.05 percentage of active principle,–
–,> 50 mg/mL,"CCCCCCCCCCCC(=O)NCCCN(C)Cc1ccccc1 [SR 45583 A, N-(3-Benzylmethylaminopropyl)lauramide hydrochloride]",10 µg/mL,0.05 percentage of active principle,0.5 percentage of active principle,0.01 percentage of active principle,0.05 percentage of active principle,10 µg/mL,50 µg/mL,0.01 percentage of active principle,0.5 percentage of active principle,50 µg/mL,–,50 µg/mL,0.05 percentage of active principle,0.1 percentage of active principle,0.05 percentage of active principle,0.1 percentage of active principle,0.05 percentage of active principle,0.01 percentage of active principle
